Laboratory results from publication PMC11912484 (Journal of Medicinal Chemistry, 2025).
Converted amounts (≈) assume the structure as drawn. “Also recorded” adds a separate entry of the source. Like-named read-outs stand apart in the source and are kept apart here.

Tests used:
[1] = target: T1, MbtI (Mycobacterium tuberculosis, UniProt P9WFX1); assay: MbtI fluorimetric enzyme inhibition assay; assay type: biochemical; details: for remaining activity at 100 µM / % RA (percentage of residual enzymatic activity): 100 μM test compound, 50 μM chorismic acid; for remaining activity at 100 µM: read-out: % RA (percentage of residual enzymatic activity); for IC50: recombinant MbtI
T1 construct: made in house
Protocol: MbtI from Mtb was produced in recombinant form, and enzyme activity was determined using a fluorimetric assay, as previously reported.[38] For the inhibition studies, the activity was determined in the presence of 100 μM of the test compound and 50 μM of chorismic acid. For compounds that inhibited more than 80% of the initial activity, IC50 values were calculated using eq 1 and GraphPad Prism 8.0 software [drawing 1] 1 where A[I] is the activity at inhibitor concentration [I] and A[0] is the activity in the absence of the inhibitor.

[2] = system: M. bovis BCG; assay: microbe, parasite or virus in culture; assay type: cell-based; details: for MIC99: Mycobacterium tuberculosis variant bovis BCG, BCG; for antimycobacterial effect (in words): M. bovis BCG, REMA
[3] = system: mycobacterial efflux pumps; assay type: cell-based, M. bovis BCG; details: MIC99 with reserpine 32 μg/mL or verapamil 125 μg/mL (1/2 MIC)
[4] = system: siderophore production; assay type: cell-based; details: M. bovis BCG grown with different concentrations of compound
[5] = system: M. bovis BCG; assay type: cell-based; details: 1 × MIC and 10 × MIC, low-iron chelated Sauton's medium
[6] = system: Mtb-infected murine alveolar-like macrophages (mAMs); assay type: cell-based, Mycobacterium tuberculosis
[7] = system: mouse alveolar-like macrophages (MPI-2 cell line); assay: MTT viability assay on mAMs; assay type: cell-based; details: 24 h exposure, 200, 100, 50 and 25 μM
Protocol: Cell viability was evaluated on human monocytes (THP-1 cell line), human lung fibroblasts (HLF cell line), and mouse alveolar-like macrophages (MPI-2 cell line) using the thiazolyl blue tetrazolium bromide method (MTT; chemicals acquired from Sigma-Aldrich, Merck KGaA).

[8] = Polymersome size by DLS; assay type: physicochemical; details: three independent batches
Protocol: The purified solutions were then analyzed by Transmission Electron Microscopy (TEM) on a Jeol JEM 1010 100 kV microscope, equipped with a Megaview 1kx1k CCD (Jeol Ltd., Tokyo, Japan). Copper grids were glow-discharged, and the sample was adsorbed onto the grid. The sample was stained with 1 wt % phosphotungstic acid (PTA) adjusted to pH 7.4 with NaOH. All the TEM analyses were performed with dried samples. The nanoparticle size distribution was characterized by DLS analyses (DLS PN3704 Zetasizer, Malvern Panalytical) using a copolymer concentration of 0.20 mg/mL. For each analysis, 3 measurements were carried out, based on 11 runs. Samples were analyzed at 25 °C with a scattering angle of 173° and a 633 nm HeNe laser, based on a material refractive index (RI) of 1.59, a dispersant refractive index of 1.330, and a viscosity of 0.89. Drug encapsulation was measured by RP-HPLC (Dionex UltiMate 3000, ThermoFisher Scientific). A gradient of water + TFA 0.05% (A) and MeOH + TFA 0.05% (B) from 0 min (30% B) to 30 min (100% B) was used to run the samples through a Jupiter 5 μm C18 300 Å, 150 × 4.6 mm column (Phenomenex, Torrance, CA). The peak area was integrated by using Chromeleon version 6.8 (ThermoFisher Scientific).

[9] = target: T1, MbtI; details: compound II; cited from earlier work
[10] = system: M. bovis BCG; details: cited from earlier work
[11] = system: Mtb H37Rv; design: method as in PMID 32530281; details: compound I; cited from earlier work
[12] = system: human cell lines; design: method as in PMID 30889995, PMID 36015139; details: several human cell lines; cited from earlier work

T1 sequence (P9WFX1 whole entry): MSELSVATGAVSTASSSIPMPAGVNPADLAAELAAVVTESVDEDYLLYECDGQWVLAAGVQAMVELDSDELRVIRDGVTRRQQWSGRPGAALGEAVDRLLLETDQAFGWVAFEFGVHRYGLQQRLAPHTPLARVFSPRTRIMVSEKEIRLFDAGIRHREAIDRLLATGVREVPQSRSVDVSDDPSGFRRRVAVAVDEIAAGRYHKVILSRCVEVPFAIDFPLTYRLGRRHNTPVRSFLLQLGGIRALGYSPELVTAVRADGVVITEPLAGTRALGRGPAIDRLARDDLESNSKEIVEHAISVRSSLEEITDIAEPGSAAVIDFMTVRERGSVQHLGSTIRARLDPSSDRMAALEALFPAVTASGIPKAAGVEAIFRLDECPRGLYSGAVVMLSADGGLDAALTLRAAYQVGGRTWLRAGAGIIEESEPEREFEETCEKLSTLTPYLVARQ

SMILES | remaining activity at 100 µM [1] [%] | IC50 [1] [µM] | MIC99 [2] [µM] | other results
CCOc1cc(C#N)cc(-c2ccc(C(=O)O)o2)c1 [Compound 1a, 5-(3-Cyano-5-ethoxyphenyl)furan-2-carboxylic Acid] | 4.9 ± 2.3 | 11.8 ± 0.6 | > 500 | 
CC(C)Oc1cc(C#N)cc(-c2ccc(C(=O)O)o2)c1 [Compound 1b, 5-(3-Cyano-5-isopropoxyphenyl)furan-2-carboxylic Acid] | 12.1 ± 2.9 | 21.1 ± 0.6 | > 500 | 
CCCOc1cc(C#N)cc(-c2ccc(C(=O)O)o2)c1 [Compound 1c, 5-(3-Cyano-5-propoxyphenyl)furan-2-carboxylic Acid] | 2.5 ± 0.4 | 18.5 ± 0.9 | 250 (≈ 67.8 µg/mL) | 
CCCCOc1cc(C#N)cc(-c2ccc(C(=O)O)o2)c1 [Compound 1d, 5-(3-Butoxy-5-cyanophenyl)furan-2-carboxylic Acid] | < 1 | 0.9 ± 0.2 | 63 (≈ 18 µg/mL) | substrate of mycobacterial efflux pumps [3]: not substrates of efflux pumps
CC(C)COc1cc(C#N)cc(-c2ccc(C(=O)O)o2)c1 [Compound 1e, 5-(3-Cyano-5-isobutoxyphenyl)furan-2-carboxylic Acid] | 7 ± 3.1 | 11.2 ± 1.5 | 32 (≈ 9.13 µg/mL) | siderophore production (CAS assay) [4]: acted by impairing the production of siderophores; time-killing behaviour [5]: bacteriostatic activity; reduction in Mtb intracellular burden by the free compound [6]: did not exhibit significant activity on infected macrophages; also recorded: detected only at the highest tested concentration (200 μM); substrate of mycobacterial efflux pumps [3]: not substrates of efflux pumps
N#Cc1cc(OCC2CC2)cc(-c2ccc(C(=O)O)o2)c1 [Compound 1f, 5-(3-Cyano-5-(cyclopropylmethoxy)phenyl)furan-2-carboxylic Acid] | 20 |  | 125 (≈ 35.4 µg/mL) | % RA (percentage of residual enzymatic activity) [1]: 20.6 ± 2.4%
N#Cc1cc(OCC2CCC2)cc(-c2ccc(C(=O)O)o2)c1 [Compound 1g, 5-(3-Cyano-5-(cyclobutylmethoxy)phenyl)furan-2-carboxylic Acid] | 30 |  | 250 (≈ 74.3 µg/mL) | % RA (percentage of residual enzymatic activity) [1]: 30.4 ± 6.3%
CC(C)(C)COc1cc(C#N)cc(-c2ccc(C(=O)O)o2)c1 [Compound 1h, 5-(3-Cyano-5-(neopentyloxy)phenyl)furan-2-carboxylic Acid] | 6.8 ± 3.1 | 18.6 ± 1.5 | 125 (≈ 37.4 µg/mL) | 
CCCCCOc1cc(C#N)cc(-c2ccc(C(=O)O)o2)c1 [Compound 1i, 5-(3-Cyano-5-(pentyloxy)phenyl)furan-2-carboxylic Acid] | 0.4 ± 0.2 | 6.8 ± 0.1 | 125 (≈ 37.4 µg/mL) | 
CC(C)CCOc1cc(C#N)cc(-c2ccc(C(=O)O)o2)c1 [Compound 1j, 5-(3-Cyano-5-(isopentyloxy)phenyl)furan-2-carboxylic Acid] | 1.6 ± 1.4 | 22 ± 1.8 | 125 (≈ 37.4 µg/mL) | 
CCCCCCOc1cc(C#N)cc(-c2ccc(C(=O)O)o2)c1 [Compound 1k, 5-(3-Cyano-5-(hexyloxy)phenyl)furan-2-carboxylic Acid] | 6 ± 6.1 | 9.9 ± 1.3 | 63 (≈ 19.7 µg/mL) | substrate of mycobacterial efflux pumps [3]: not substrates of efflux pumps
CCCCCCCCOc1cc(C#N)cc(-c2ccc(C(=O)O)o2)c1 [Compound 1l, 5-(3-Cyano-5-(octyloxy)phenyl)furan-2-carboxylic Acid] | 40 |  |  | % RA (percentage of residual enzymatic activity) [1]: 40.0 ± 4.1%
CC=CCOc1cc(C#N)cc(-c2ccc(C(=O)O)o2)c1 [Compound 1m, 5-(3-(But-2-en-1-yloxy)-5-cyanophenyl)furan-2-carboxylic Acid] | 7.5 ± 0.3 | 3.1 ± 0.7 | 125 (≈ 35.4 µg/mL) | 
C/C=C/C=C/COc1cc(C#N)cc(-c2ccc(C(=O)O)o2)c1 [Compound 1n, 5-(3-Cyano-5-((2E,4E)-hexa-2,4-dien-1-yloxy)phenyl)furan-2-carboxylic Acid] | 10 ± 3.6 | 16.6 ± 2.1 | > 500 | antimycobacterial effect (in words) [2]: completely abolished the antimycobacterial effect
C/C=C/C=C/C=C/COc1cc(C#N)cc(-c2ccc(C(=O)O)o2)c1 [Compound 1o, 5-(3-Cyano-5-((2E,4E,6E)-octa-2,4,6-trien-1-yloxy)phenyl)furan-2-carboxylic Acid] | 18.4 ± 3.8 | 9.2 ± 2.4 | > 500 | antimycobacterial effect (in words) [2]: completely abolished the antimycobacterial effect
CCOC(=O)c1ccc(-c2cc(C#N)cc(OCC(C)C)c2)o1 [Compound 2ea, Ethyl 5-(3-Cyano-5-isobutoxyphenyl)furan-2-carboxylate] | 71.5 ± 7.6 |  | 64 (≈ 20.1 µg/mL) | mAM viability / cytotoxic effect [7]: increase in mAM mortality at the two highest tested concentrations (200 and 100 μM); average size (hydrodynamic diameter) of drug-containing POs [8]: 44.46 ± 9.58 nm
CCCOC(=O)c1ccc(-c2cc(C#N)cc(OCC(C)C)c2)o1 [Compound 2eb, Propyl 5-(3-Cyano-5-isobutoxyphenyl)furan-2-carboxylate] | 94 ± 9.3 |  | 125 (≈ 40.9 µg/mL) | mAM viability / cytotoxic effect [7]: increase in mAM mortality at the two highest tested concentrations (200 and 100 μM); average size (hydrodynamic diameter) of drug-containing POs [8]: 45.68 ± 1.86 nm
N#Cc1cc(OCCOc2ccccc2)cc(-c2ccc(C(=O)O)o2)c1 [II] |  |  |  | IC50 [9]: 12.1 µM; MIC99 ([10]; compound II): 63 µM (≈ 22 µg/mL)
N#Cc1cccc(-c2ccc(C(=O)O)o2)c1 [I] |  |  |  | MIC99 [11]: 250 µM (≈ 53.3 µg/mL); safety on human cell lines [12]: safe on several human cell lines; MIC99 ([10]; compound I, M. bovis BCG): 250 µM (≈ 53.3 µg/mL)
CO[C@H]1/C=C/O[C@@]2(C)Oc3c(C)c(O)c4c(O)c(c(/C=N/N5CCN(C)CC5)c(O)c4c3C2=O)NC(=O)/C(C)=C\C=C\[C@H](C)[C@H](O)[C@@H](C)[C@@H](O)[C@@H](C)[C@H](OC(C)=O)[C@@H]1C [Rifampicin, reference compound] |  |  |  | time of peak effect on Mtb fluorescence ([6]; 1 μg/mL (2x MIC), positive control): 3 day post-treatment
